Numbers after ± are expanded uncertainties.
Test: xn = mol fraction of the nth substance listed
Details: Liquid, Vibrating tube method

CCCCCCCCCC [decane] + CCO
mass density (303.2 K, 100 kPa, x2 = 0.25): 726.4 ± 0.3 kg/m3 | mass density (303.2 K, 100 kPa, x2 = 0.5): 732.8 ± 0.3 kg/m3 | mass density (303.2 K, 100 kPa, x2 = 0.75): 746.3 ± 0.3 kg/m3 | mass density (303.2 K, 1000 kPa, x2 = 0.25): 727.2 ± 0.3 kg/m3 | mass density (303.2 K, 1000 kPa, x2 = 0.5): 733.7 ± 0.3 kg/m3 | mass density (303.2 K, 1000 kPa, x2 = 0.75): 747.2 ± 0.3 kg/m3 | mass density (303.2 K, 2000 kPa, x2 = 0.25): 728 ± 0.3 kg/m3 | mass density (303.2 K, 2000 kPa, x2 = 0.5): 734.5 ± 0.3 kg/m3 | mass density (303.2 K, 2000 kPa, x2 = 0.75): 748.1 ± 0.3 kg/m3 | mass density (303.2 K, 3000 kPa, x2 = 0.25): 728.8 ± 0.3 kg/m3 | mass density (303.2 K, 3000 kPa, x2 = 0.5): 735.4 ± 0.3 kg/m3 | mass density (303.2 K, 3000 kPa, x2 = 0.75): 749 ± 0.3 kg/m3 | mass density (303.2 K, 4000 kPa, x2 = 0.25): 729.6 ± 0.3 kg/m3 | mass density (303.2 K, 4000 kPa, x2 = 0.5): 736.3 ± 0.3 kg/m3 | mass density (303.2 K, 4000 kPa, x2 = 0.75): 749.8 ± 0.3 kg/m3 | mass density (303.2 K, 5000 kPa, x2 = 0.25): 730.4 ± 0.4 kg/m3 | mass density (303.2 K, 5000 kPa, x2 = 0.5): 737.1 ± 0.3 kg/m3 | mass density (303.2 K, 5000 kPa, x2 = 0.75): 750.7 ± 0.3 kg/m3 | mass density (303.2 K, 6000 kPa, x2 = 0.25): 731.3 ± 0.4 kg/m3 | mass density (303.2 K, 6000 kPa, x2 = 0.5): 738 ± 0.4 kg/m3 | mass density (303.2 K, 6000 kPa, x2 = 0.75): 751.6 ± 0.3 kg/m3 | mass density (303.2 K, 7000 kPa, x2 = 0.25): 732.1 ± 0.4 kg/m3 | mass density (303.2 K, 7000 kPa, x2 = 0.5): 738.8 ± 0.4 kg/m3 | mass density (303.2 K, 7000 kPa, x2 = 0.75): 752.4 ± 0.3 kg/m3 | mass density (303.2 K, 8000 kPa, x2 = 0.25): 732.9 ± 0.4 kg/m3 | mass density (303.2 K, 8000 kPa, x2 = 0.5): 739.7 ± 0.4 kg/m3 | mass density (303.2 K, 8000 kPa, x2 = 0.75): 753.3 ± 0.3 kg/m3 | mass density (303.2 K, 9000 kPa, x2 = 0.25): 733.7 ± 0.4 kg/m3 | mass density (303.2 K, 9000 kPa, x2 = 0.5): 740.5 ± 0.4 kg/m3 | mass density (303.2 K, 9000 kPa, x2 = 0.75): 754.1 ± 0.3 kg/m3 | mass density (303.2 K, 10000 kPa, x2 = 0.25): 734.5 ± 0.4 kg/m3 | mass density (303.2 K, 10000 kPa, x2 = 0.5): 741.3 ± 0.4 kg/m3 | mass density (303.2 K, 10000 kPa, x2 = 0.75): 755 ± 0.3 kg/m3 | mass density (323.2 K, 100 kPa, x2 = 0.25): 709.6 ± 0.3 kg/m3 | mass density (323.2 K, 100 kPa, x2 = 0.5): 715.8 ± 0.3 kg/m3 | mass density (323.2 K, 100 kPa, x2 = 0.75): 728.5 ± 0.3 kg/m3 | mass density (323.2 K, 1000 kPa, x2 = 0.25): 710.3 ± 0.3 kg/m3 | mass density (323.2 K, 1000 kPa, x2 = 0.5): 716.7 ± 0.3 kg/m3 | mass density (323.2 K, 1000 kPa, x2 = 0.75): 729.5 ± 0.3 kg/m3 | mass density (323.2 K, 2000 kPa, x2 = 0.25): 711.2 ± 0.3 kg/m3 | mass density (323.2 K, 2000 kPa, x2 = 0.5): 717.7 ± 0.3 kg/m3 | mass density (323.2 K, 2000 kPa, x2 = 0.75): 730.6 ± 0.3 kg/m3 | mass density (323.2 K, 3000 kPa, x2 = 0.25): 712.2 ± 0.3 kg/m3 | mass density (323.2 K, 3000 kPa, x2 = 0.5): 718.6 ± 0.3 kg/m3 | mass density (323.2 K, 3000 kPa, x2 = 0.75): 731.5 ± 0.3 kg/m3 | mass density (323.2 K, 4000 kPa, x2 = 0.25): 713.1 ± 0.4 kg/m3 | mass density (323.2 K, 4000 kPa, x2 = 0.5): 719.6 ± 0.3 kg/m3 | mass density (323.2 K, 4000 kPa, x2 = 0.75): 732.6 ± 0.3 kg/m3 | mass density (323.2 K, 5000 kPa, x2 = 0.25): 714 ± 0.4 kg/m3 | mass density (323.2 K, 5000 kPa, x2 = 0.5): 720.5 ± 0.3 kg/m3 | mass density (323.2 K, 5000 kPa, x2 = 0.75): 733.5 ± 0.3 kg/m3 | mass density (323.2 K, 6000 kPa, x2 = 0.25): 714.9 ± 0.4 kg/m3 | mass density (323.2 K, 6000 kPa, x2 = 0.5): 721.5 ± 0.3 kg/m3 | mass density (323.2 K, 6000 kPa, x2 = 0.75): 734.5 ± 0.3 kg/m3 | mass density (323.2 K, 7000 kPa, x2 = 0.25): 715.8 ± 0.4 kg/m3 | mass density (323.2 K, 7000 kPa, x2 = 0.5): 722.4 ± 0.3 kg/m3 | mass density (323.2 K, 7000 kPa, x2 = 0.75): 735.4 ± 0.3 kg/m3 | mass density (323.2 K, 8000 kPa, x2 = 0.25): 716.8 ± 0.4 kg/m3 | mass density (323.2 K, 8000 kPa, x2 = 0.5): 723.3 ± 0.4 kg/m3 | mass density (323.2 K, 8000 kPa, x2 = 0.75): 736.4 ± 0.3 kg/m3 | mass density (323.2 K, 9000 kPa, x2 = 0.25): 717.7 ± 0.4 kg/m3 | mass density (323.2 K, 9000 kPa, x2 = 0.5): 724.2 ± 0.4 kg/m3 | mass density (323.2 K, 9000 kPa, x2 = 0.75): 737.4 ± 0.4 kg/m3 | mass density (323.2 K, 10000 kPa, x2 = 0.25): 718.6 ± 0.4 kg/m3 | mass density (323.2 K, 10000 kPa, x2 = 0.5): 725.2 ± 0.4 kg/m3 | mass density (323.2 K, 10000 kPa, x2 = 0.75): 738.4 ± 0.4 kg/m3
